Reference: US20240268379A1, “BIODEGRADABLE PVA/PVP HYDROGELS, USES AND PREPARATION THEREOF” (Bar-Ilan University, priority 2021, published 2024)

Assay: Thermal stability of thymol by TGA-MS
Format: physicochemical
Settings: 20° C./min, nitrogen
Procedure: Thermal gravimetric analysis (TGA) was carried out using SETSYS, by Setaram. The released products during the measurements were obtained by using Hiden HPR-20 QIC mass spectrometer (TGA) coupled with mass spectroscopy (MS). The analysis was conducted to study the stability effect of the PVA/PVP hydrogel, under heat treatment, on thymol, entrapped in the hydrogel, relative to thymol pure form. The tested samples were heated from 30° C. up to 630° C. (20° C./min heat rate) under nitrogen inert atmosphere (20 ml/min nitrogen flow rate).

Q: Which “thymol loss end temperature” value does the source give for Cc1ccc(C(C)C)c(O)c1 [pure thymol, thymol] here?
A: 130 °C

Q: What about the “thymol loss start temperature” value of the same compound?
A: 70 °C
